Patent US20100015620A1, “CANCER-LINKED GENES AS BIOMARKERS TO MONITOR RESPONSE TO IMPDH INHIBITORS” (priority 2006, published 2010)

Assays:
both IMPDH isozymes = details: cited from earlier work
[1] = test system: human peripheral lymphocytes stimulated with either B-cell or T-cell mitogens; details: cited from earlier work
[2] = test system: HT-29, K-562 and KG-1 cells; assay: GTP pool depletion and repletion, and cell cycle block, in cell lines; type: cell-based, human
Method: The present identification of relevant biomarkers was cognizant of the need to capture genes that move with respect to relevant clinical experiments. For example, IMPDH inhibition results in the cell cycle halting at the G1 border. […] Concentration depletion of GTP was measured in HT-29, K-562 and KG-1 cells. DMSO was used as control. […] For example, PDE7A and RRM2 were deregulated only on GTP repletion (which occurred within 90 minutes after drug removal). Thus, the present experiments have correlated gene involvement with the real biological endpoint for IMPDH inhibition.

SMILES: CC[C@H](CC#N)OC(=O)N[C@@H](C)c1cccc(NC(=O)Nc2ccc(-c3cnco3)c(OC)c2)c1 [AVN-944]
- Ki (both IMPDH isozymes): 7 to 10 nM
- IC50 [1]: 20 to 100 nM
- Effect on GTP pools ([2]; HT-29, K-562 and KG-1 cells, DMSO control): depleted GTP pools
- Time to GTP repletion after drug removal ([2]; after drug removal): ≤ 90 min
- Effect on cell cycle ([2]; at concentrations of AVN-944 that depleted GTP pools): S phase cell cycle block
